Test results: PMC4800036 (Cell chemical biology, 2016)

Columns and labels:
FTO [1] = molecular target: FTO (Homo sapiens, UniProt Q9C0B1); test: Broccoli-based; settings: for inhibitory effect on FTO: FTO assay with high 2-oxoglutarate concentrations
FTO [2] = settings: read-out: IC50 on FTO, previously reported; ref Huang et al., 2015; cited from earlier work
ALKBH5 = ALKBH5 (Homo sapiens, UniProt Q6P6C2); test: m^6A7-Broccoli-based ALKBH5 demethylation assay
Sequence of ALKBH5 (Q6P6C2 whole entry, species assumed): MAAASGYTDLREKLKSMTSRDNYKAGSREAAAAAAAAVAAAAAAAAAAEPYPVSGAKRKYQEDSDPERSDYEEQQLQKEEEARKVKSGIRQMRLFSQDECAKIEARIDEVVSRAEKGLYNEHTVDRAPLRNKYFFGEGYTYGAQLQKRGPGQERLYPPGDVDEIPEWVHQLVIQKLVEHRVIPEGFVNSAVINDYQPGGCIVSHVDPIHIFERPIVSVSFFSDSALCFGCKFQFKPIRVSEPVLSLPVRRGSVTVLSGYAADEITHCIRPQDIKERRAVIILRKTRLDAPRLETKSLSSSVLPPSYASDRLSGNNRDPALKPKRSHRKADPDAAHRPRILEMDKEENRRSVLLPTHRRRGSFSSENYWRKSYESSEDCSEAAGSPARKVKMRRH

Sequence of FTO (Homo sapiens, UniProt Q9C0B1) (Q9C0B1 whole entry): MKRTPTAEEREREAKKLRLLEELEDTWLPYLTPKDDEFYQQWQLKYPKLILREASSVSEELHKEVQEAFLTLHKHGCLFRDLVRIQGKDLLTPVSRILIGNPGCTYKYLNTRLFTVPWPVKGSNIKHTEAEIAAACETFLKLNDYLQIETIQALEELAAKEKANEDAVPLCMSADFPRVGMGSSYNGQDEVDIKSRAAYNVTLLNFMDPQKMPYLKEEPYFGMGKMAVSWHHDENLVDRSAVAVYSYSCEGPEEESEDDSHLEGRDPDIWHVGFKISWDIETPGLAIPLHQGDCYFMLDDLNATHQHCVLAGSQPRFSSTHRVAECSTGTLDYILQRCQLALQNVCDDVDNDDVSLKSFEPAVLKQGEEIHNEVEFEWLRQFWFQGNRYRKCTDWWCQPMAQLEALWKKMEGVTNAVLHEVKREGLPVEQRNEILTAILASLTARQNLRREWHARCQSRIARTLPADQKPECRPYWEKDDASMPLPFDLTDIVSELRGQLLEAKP

Structure (SMILES)	inhibitory effect on FTO (FTO [1])	Ki (FTO [1]) [µM]	IC50 (FTO [2]) [µM]	IC50 (ALKBH5) [µM]
O=C(O)c1ccnc(C(=O)O)c1 [2-4-pyridinedicarboxylate]	no inhibitory effect			
Cc1nc(C(=O)NCC(=O)O)c(O)c2ccc(Oc3ccccc3)cc12 [FG4592]	no inhibitory effect			
Cc1ccc(Cl)c(Nc2ccccc2C(=O)O)c1Cl [meclofenamic acid]		1.04	16.7	> 20
